# Experimental data from patent US11168249B1, “Luminescent polydentate polycyclic compounds for metal ions” (priority 2012, dated 2021).
# Entries after “also recorded” stand apart in the source; their conditions may differ.
# Key:
# Type in all cases: physicochemical
# [1] = Normalized emission spectra of D1 (L) and complexes in dry acetonitrile (FIG. 22); conditions: D1 0.00013 M, metal ion 0.00012 M
# Method: The concentration of D1 was 0.00013 M, and the metal ion concentration was 0.00012 M. The metal ions are added as perchlorates or acetates. The y-axis is luminescence intensity, and the x-axis is wavelength in nanometers. The free ligand L had maximum emission at 470 nm. The L+Ca(II) complex had maximum emission at 526 nm. The L+Zn(II) complex had maximum emission at 581 nm. The L+trifluoroacetate complex had maximum emission at 592 nm. The L+H^+ complex had maximum emission at 691 nm. The L+H^+ complex was formed using aluminum chloride dissolved in TFA and diluted with dry MeCN, and it is likely that HCl was produced in situ, and that this is protonating the ligand.
# [2] = Normalized emission spectra of D1 (L) and complexes in the solid state (FIG. 23)
# Description: The y-axis is luminescence intensity, and the x-axis is wavelength in nanometers. The free ligand L had maximum emission at 457 nm. The L+Ca complex had maximum emission at 519 nm. The L+Zn complex had maximum emission at 556 nm. Al/H^+ complex had maximum emission at 651 nm. This latter complex is a protonated ligand obtained by using aluminum perchlorate, which produced acid in situ.
# The curve labeled Al/H+(N) was obtained by using protonated ligand obtained by treating the ligand with aluminum perchlorate.
# [3] = Fluorescence color of D1 in acetonitrile solution with and without metal ions under UV 365 nm (FIG. 1); conditions: D1 0.004 M
# Method: FIG. 1 is a set of pictures showing the change in color of derivative compound D1 in the absence and presence of various metal ions (Mg^2+, Sr^2+, Ca^2+, Cd^2+, Zn^2+, H^+) in solution. The solvent was acetonitrile, the concentration of D1 was 0.004 M, and the metal ion concentration was 0.04 M. The metal ions are added as perchlorates or acetates. The solutions were exposed to UV light having an excitation wavelength of 365 nm.
# With no metal, the D1 solution was blue. With Mg^2+, the solution was a blue-green color. With Sr^2+, the solution was a green-blue color. With Ca^2+, the solution was a green color. With Cd^2+, the solution was an olive green color. With Zn^2+, the solution was a yellow-orange color. With H^+, the solution was a red color.
# [4] = Fluorescence color of D1 in acetonitrile solution with one equivalent of metal perchlorate under UV 365 nm (FIG. 4)
# Method: FIG. 4 is a set of pictures showing the change in color of derivative compound D1 in the absence and presence of various metal ions (Ca^2+, Zn^2+, H^+, Pb^2+) in solution (perchlorate salts), both under ordinary light and under UV light (365 nm). The solvent was acetonitrile, the concentration of D1 was 0.0001 M, and one equivalent of the metal perchlorate salt was added. For H^+, an aluminum perchlorate salt was used, which produced acid (H^+) that protonated the ligand.
# Under UV light, the D1 solution alone is blue. With Ca(II), the solution is green. With Zn(II), the solution is yellow-orange. With Al(III) perchlorate, the solution is red. This red color resulted from an unexpected hydrolysis reaction that produced acid (H^+). The protonated ligand provided the red color. With Pb(II), the solution is black, i.e. the blue color that would other be visible has been quenched.
# [5] = Fluorescence color in the solid state with and without metal ions or acids under UV 365 nm (FIGS. 2, 5, 6, 7, 24, 25)
# Description: FIG. 2 is a set of pictures showing the change in color of derivative compound D1 in the absence and presence of various metal ions (Ca^2+, Sr^2+, Cd^2+, Zn^2+, Ba^2+, Ha^+, Hb^+, Ni^2+) in the solid state. The sample labeled Ha^+ was isolated from a KOH/ethanol solution after treatment with trifluoroacetic acid (TFA). The sample labeled Hb^+ was obtained by using aluminum perchlorate, which produced acid (H^+) due to an unexpected hydrolysis reaction with the medium.
# FIG. 5 is a set of pictures showing the change in color of derivative compound D1 in the absence and presence of various metal ions or acids (Ca^2+, Zn^2+, H^+, Pb^2+) in the solid state, both under ordinary light and under UV light (365 nm). Perchlorate salts were used. When the aluminum salt was used, an unexpected hydrolysis produced acid (H^+) which protonated the ligand.
# FIG. 6 is a set of pictures showing the change in color of derivative compound D1 in the absence and presence of various metal ions or acids (H^+, Co^2+, Ni^2+, Cu^2+) in the solid state, both under ordinary light and under UV light (365 nm). Perchlorate salts were used.
# FIG. 7 is a set of pictures showing the change in color of derivative compound D1 in the absence and presence of various metal ions or acids (AgNO3, Hg^2+, Pb^2+) and of the free compound D7 (no metal ion) in the solid state, both under ordinary light and under UV light (365 nm).
# FIG. 24 is a set of pictures showing the change in color of complexes of D1 with perchlorate salts of various metal ions (Ca^2+, Sr^2+, Cd^2+) in the solid state, both under ordinary light and under UV light (365 nm).
# FIG. 25 is a set of pictures showing the change in color of complexes of D1 with salts of various metal ions (Zn^2+, Ba^2+, Ha^+, Hb^+) in the solid state, both under ordinary light and under UV light (365 nm). The zinc and barium are perchlorate salts. The complex labeled “From KOH/EtOH/TFA” was obtained from a solution of KOH and ethanol upon addition of TFA. It is unclear what is causing the orange color, but it is most likely acid, therefore the label “Ha^+”. The HClO4 complex was obtained by using aluminum perchlorate, which produced acid (H^+) that protonated the ligand.
# With no metal, the D1 powder was blue. With Ca^2+, the powder was a blue-green color. With Sr^2+, the powder was a green color. With Cd^2+, the powder was a yellow-green color. With Zn^2+, the powder was a yellow color. With Ba^2+, the powder was a dark yellow color. […] Powder isolated from solutions containing AlCl3 or Al(ClO4)3 was a red color. […] With Ni^2+, the powder was black (i.e. fluorescence was quenched).
# FIG. 5 is a set of pictures showing fluorescence of D1 in the solid state, under ordinary light (top row) and under UV light (365 nm) (bottom row). In column A, the free ligand sample (i.e. no metal ions) is blue. In column B with Ca(II), the powder is green. In column C with Zn(II), the powder is yellow. In column D with Al(III), the powder is red. Again, this appears to be due to acid (H^+). In column E with Pb(II), the powder is non-fluorescent.
# FIG. 6 is a set of pictures showing fluorescence of D1 in the solid state, under ordinary light (top row) and under UV light (365 nm) (bottom row). In the first column ligand treated with La(III) perchlorate produced a powder that fluoresces red. […] In the second column with Co(II), the powder is non-fluorescent. In the third column with Ni(II), the powder is non-fluorescent. In the fourth column with Cu(II), the powder is non-fluorescent.
# FIG. 7 is a set of pictures showing fluorescence of D1 in the solid state, under ordinary light (top row) and under UV light (365 nm) (bottom row). In the first column with silver nitrate (AgNO3), the powder is non-fluorescent. […] In the third column with Pb(II), the powder is non-fluorescent. In the fourth column, the free compound D7 is shown, and is non-fluorescent. […]
# [6] = Fluorescent properties of L4 in water/chloroform two-layer vials with metal ions and acid (FIG. 8)
# Description: FIG. 8 is a set of pictures showing the fluorescent properties of compound L4 in two different solvents (water and chloroform) in the presence of different metal ions o and acid (NaCl, CaCl2), HCl) under ordinary light and under UV light (365 nm). The concentration of L4 was 0.00032 M. Vial #2 used aqueous sodium chloride, Vial #3 included aqueous calcium chloride, and Vial #4 included dilute hydrochloric acid.
# FIG. 8 is a set of pictures showing the fluorescent properties of compound L4 in two different solvents (water and chloroform) under ordinary light and under UV light (365 nm). Vial #1 contains only L4, Vial #2 contains sodium chloride, Vial #3 contains calcium chloride, and Vial #4 contains hydrochloric acid. The two layers in each vial were mixed, then allowed to separate and observed. […] There is no reaction to sodium in Vial #2. […] It is believed that this migration will only occur with a metal ion of the proper size and sufficiently high ionic charge. […] Interference from acid is, therefore, not expected to cause false positive results.
structure (smiles),measurement,setting,value
"COc1cccc2cc3c(nc12)-c1nc2c(OC)cccc2cc1CC3 [Compound D1, 8,8′-Dimethoxy-3,3′-dimethylene-2,2′-biquinoline]",maximum emission,[1],470 nm
same,maximum emission,[2],457 nm
same,color of solution,[3]; Ca^2+ 0.04 M,green
same,color of solution,[3]; Cd^2+ 0.04 M,olive green
same,color of solution,[3]; H^+,red
same,color of solution,[3]; Mg^2+ 0.04 M,blue-green
same,color of solution,[3]; Sr^2+ 0.04 M,green-blue
same,color of solution,[3]; Zn^2+ 0.04 M,yellow-orange
same,color of solution,[3]; no metal,blue
same,color of solution under UV light,[4]; D1 0.0001 M alone,blue
same,color of solution under UV light,"[4]; D1 0.0001 M, Al(III) perchlorate (produced acid H^+, protonated ligand)",red
same,color of solution under UV light,"[4]; D1 0.0001 M, one equivalent Ca(II) perchlorate",green
same,color of solution under UV light,"[4]; D1 0.0001 M, one equivalent Pb(II) perchlorate",black
same,color of solution under UV light,"[4]; D1 0.0001 M, one equivalent Zn(II) perchlorate",yellow-orange
same,fluorescence of powder,[5]; free compound (no metal ions),blue
same,fluorescence of powder,"[5]; from AlCl3 or Al(ClO4)3 (acid H^+, protonated ligand; Hb^+/HClO4)",red
same,fluorescence of powder,[5]; isolated from ethanolic KOH treated with TFA (Ha^+),orange
same,fluorescence of powder,"[5]; treated with La(III) perchlorate (acid H^+, protonated ligand)",red
same,fluorescence of powder,[5]; with Ca^2+,blue-green
same,fluorescence of powder,[5]; with Cd^2+,yellow-green
same,fluorescence of powder,[5]; with Co(II),non-fluorescent
same,fluorescence of powder,[5]; with Cu(II),non-fluorescent
same,fluorescence of powder,[5]; with Hg(II),barely fluoresces
same,fluorescence of powder,[5]; with Ni^2+,black; also recorded: non-fluorescent
same,fluorescence of powder,[5]; with Pb(II),non-fluorescent
same,fluorescence of powder,[5]; with Sr^2+,green
same,fluorescence of powder,[5]; with Zn^2+,yellow
same,fluorescence of powder,[5]; with silver nitrate (AgNO3),non-fluorescent
"CCCCc1c2c(nc3c1CCc1cc4cccc(OCC(=O)OC)c4nc1-3)-c1nc3c(OCC(=O)OC)cccc3cc1CC2 [Compound L4, 8-butyl-1,15-bis(methoxycarbonylmethoxy)-diquinolino[2,3-c:3′,2′-h]-6,7,9,10-tetrahydroacridine]",layer in which the compound is present,"[6]; Vial #1, only L4 0.00032 M",chloroform layer
same,response to sodium,"[6]; Vial #2, aqueous sodium chloride, L4 0.00032 M",no reaction
same,migration of the complex between layers,"[6]; Vial #3, aqueous calcium chloride",migrated to the water layer
same,fluorescent response,"[6]; Vial #3, aqueous calcium chloride (Ca^2+), UV 365 nm",intense blue
same,fluorescence,"[6]; Vial #4, dilute hydrochloric acid, UV 365 nm",green
